Assays:
[1] = for surface tension liquid-gas: Ring tensiometer; for mass density: 101.33 kPa, Liquid
[2] = xn = mol fraction of the nth substance listed; settings: Ring tensiometer

OCc1ccccc1 [benzenemethanol]
[1]
Settings | mass density [kg/m3] | surface tension liquid-gas [mN/m]
293.15 K | 1045.2 | 39.05
298.15 K | 1041.4 | 38.58
303.15 K | – | 38.12
308.15 K | – | 37.63
313.15 K | – | 37.16
318.15 K | 1025.8 | 36.63
323.15 K | – | 36.18

OCc1ccccc1 [benzenemethanol] + CCCC(C)O
surface tension liquid-gas [mN/m], [2]
Settings | x2 = 0 | x2 = 0.0026 | x2 = 0.0055 | x2 = 0.0093 | x2 = 0.0129 | x2 = 0.0238 | x2 = 0.0344 | x2 = 0.0542
293.15 K | 39.05 | 36.98 | 36.71 | 36.43 | 35.99 | 35.72 | 35.49 | 35.08
298.15 K | 38.58 | 36.48 | 36.22 | 35.95 | 35.54 | 35.32 | 35.08 | 34.61
303.15 K | 38.12 | 35.95 | 35.7 | 35.53 | 35.15 | 34.9 | 34.71 | 34.1
308.15 K | 37.63 | 35.46 | 35.18 | 35 | 34.73 | 34.49 | 34.32 | 33.61
313.15 K | 37.16 | 34.97 | 34.73 | 34.54 | 34.33 | 34.05 | 33.93 | 33.1
318.15 K | 36.63 | 34.44 | 34.18 | 34.07 | 33.91 | 33.63 | 33.49 | 32.69
323.15 K | 36.18 | 33.91 | 33.65 | 33.56 | 33.55 | 33.28 | 33.11 | 32.19

OCc1ccccc1 [benzenemethanol] + CCCCCO
surface tension liquid-gas [mN/m], [2]
Settings | x2 = 0 | x2 = 0.0037 | x2 = 0.0052 | x2 = 0.0083 | x2 = 0.0117 | x2 = 0.0213 | x2 = 0.0336 | x2 = 0.0536
293.15 K | 39.05 | 36.88 | 36.73 | 36.56 | 36.35 | 35.93 | 35.63 | 35.22
298.15 K | 38.58 | 36.41 | 36.34 | 36.12 | 35.93 | 35.5 | 35.21 | 34.76
303.15 K | 38.12 | 36.05 | 35.92 | 35.73 | 35.5 | 35.05 | 34.79 | 34.31
308.15 K | 37.63 | 35.64 | 35.51 | 35.28 | 35.1 | 34.64 | 34.35 | 33.8
313.15 K | 37.16 | 35.26 | 35.1 | 34.86 | 34.69 | 34.24 | 33.95 | 33.34
318.15 K | 36.63 | 34.86 | 34.7 | 34.47 | 34.29 | 33.82 | 33.52 | 32.95
323.15 K | 36.18 | 34.47 | 34.31 | 34.03 | 33.89 | 33.4 | 33.08 | 32.43

OCc1ccccc1 [benzenemethanol] + CCCCO
surface tension liquid-gas [mN/m], [2]
Settings | x2 = 0 | x2 = 0.0034 | x2 = 0.0044 | x2 = 0.0071 | x2 = 0.0117 | x2 = 0.0213 | x2 = 0.0303 | x2 = 0.0492
293.15 K | 39.05 | 37.89 | 37.67 | 37.12 | 36.88 | 36.62 | 36.46 | 35.94
298.15 K | 38.58 | 37.43 | 37.23 | 36.67 | 36.48 | 36.17 | 35.99 | 35.49
303.15 K | 38.12 | 36.95 | 36.79 | 36.22 | 36.03 | 35.68 | 35.52 | 35.06
308.15 K | 37.63 | 36.5 | 36.36 | 35.77 | 35.6 | 35.18 | 35.02 | 34.64
313.15 K | 37.16 | 36.06 | 35.93 | 35.33 | 35.1 | 34.74 | 34.57 | 34.16
318.15 K | 36.63 | 35.63 | 35.51 | 34.84 | 34.66 | 34.27 | 34.02 | 33.74
323.15 K | 36.18 | 35.24 | 35.08 | 34.44 | 34.18 | 33.84 | 33.59 | 33.35

OCc1ccccc1 [benzenemethanol] + CCCO
surface tension liquid-gas [mN/m], [2]
Settings | x2 = 0 | x2 = 0.003 | x2 = 0.0062 | x2 = 0.0077 | x2 = 0.0116 | x2 = 0.0212 | x2 = 0.0326 | x2 = 0.0498
293.15 K | 39.05 | 37.57 | 37.01 | 36.88 | 36.75 | 36.35 | 35.95 | 35.62
298.15 K | 38.58 | 37.07 | 36.62 | 36.48 | 36.36 | 35.98 | 35.6 | 35.22
303.15 K | 38.12 | 36.6 | 36.23 | 36.12 | 36 | 35.62 | 35.3 | 34.86
308.15 K | 37.63 | 36.15 | 35.84 | 35.74 | 35.63 | 35.23 | 34.98 | 34.48
313.15 K | 37.16 | 35.64 | 35.44 | 35.36 | 35.2 | 34.83 | 34.67 | 34.14
318.15 K | 36.63 | 35.19 | 35.07 | 35 | 34.85 | 34.5 | 34.38 | 33.76
323.15 K | 36.18 | 34.73 | 34.68 | 34.64 | 34.44 | 34.13 | 34.03 | 33.41

CCCCO [butan-1-ol]
[1]
Settings | mass density [kg/m3] | surface tension liquid-gas [mN/m]
293.15 K | 810.4 | 24.16
298.15 K | 806.5 | 23.7
303.15 K | – | 23.26
308.15 K | – | 22.78
313.15 K | – | 22.39
318.15 K | 790.9 | 21.99
323.15 K | – | 21.53

CCCCO [butan-1-ol] + OCc1ccccc1
[2], x1 = 1
Settings | surface tension liquid-gas [mN/m]
293.15 K | 24.16
298.15 K | 23.7
303.15 K | 23.26
308.15 K | 22.78
313.15 K | 22.39
318.15 K | 21.99
323.15 K | 21.53

CCC(C)O (stereo unspecified) [butan-2-ol] + OCc1ccccc1
[2], x1 = 1
Settings | surface tension liquid-gas [mN/m]
293.15 K | 23.18
298.15 K | 22.74
303.15 K | 22.38
308.15 K | 21.94
313.15 K | 21.56
318.15 K | 21.11
323.15 K | 20.76

CCCCCO [pentan-1-ol] + OCc1ccccc1
[2], x1 = 1
Settings | surface tension liquid-gas [mN/m]
293.15 K | 25.69
298.15 K | 25.29
303.15 K | 24.86
308.15 K | 24.49
313.15 K | 24.06
318.15 K | 23.67
323.15 K | 23.3

CCCC(C)O (stereo unspecified) [pentan-2-ol] + OCc1ccccc1
[2], x1 = 1
Settings | surface tension liquid-gas [mN/m]
293.15 K | 23.7
298.15 K | 23.28
303.15 K | 22.87
308.15 K | 22.43
313.15 K | 22.04
318.15 K | 21.6
323.15 K | 21.16

CCCO [propan-1-ol] + OCc1ccccc1
[2], x1 = 1
Settings | surface tension liquid-gas [mN/m]
293.15 K | 23.73
298.15 K | 23.3
303.15 K | 22.9
308.15 K | 22.52
313.15 K | 22.1
318.15 K | 21.68
323.15 K | 21.27

CC(C)O [propan-2-ol] + OCc1ccccc1
[2], x1 = 1
Settings | surface tension liquid-gas [mN/m]
293.15 K | 21.3
298.15 K | 20.95
303.15 K | 20.55
308.15 K | 20.2
313.15 K | 19.83
318.15 K | 19.47
323.15 K | 19.09
